According to patent US20100297023A1, “Lipid” (priority 2006, published 2010):

Legend:
CyPB mRNA in HeLa cells = experiment: Down-regulation of the cyclophilin B gene in vitro (real time PCR); assay type: cell-based, human; conditions: lipid:siRNA ratios lower than 13:1 (w/w)
Procedure: Experimental 4 μg (3.74 μL) siRNA were complemented with 770 μL OptiMEM and 52 μg (26 μL) DODAG (2 mg/mL, water) added under vortexing. The DODAG-siRNA AB nanoparticles were allowed to stand for 5 mins at room temperature. 200 μL of the DODAG-siRNA AB nanoparticle solution were pipetted to two wells of a six well plate containing HeLa cells (250,000), and the cells incubated at 37° C. for 3 h under CO2 regime. The cells were then washed with warm PBS and incubated for another 48 h before lysing and extracting the total RNA using RNAeasy extraction columns (Qiagen). The same protocol was employed with CDAN. For DOGS, the protocol as recommended by the manufacturer was applied. The quality of the total RNA was verified on a 2% agarose formaldehyde gel, and the RNA quantified by UV (260 nm). 1 μg RNA of each sample was reverse transcribed to generate cDNA which was real time PCRed using standard protocols with Sybr green. The CyPB levels were standardized to β-actin levels for each sample (FIG. 3).

siRNA = experiment: Agarose gel retardation assay of siRNA with lipid; assay type: physicochemical; conditions: for optimal lipid:siRNA ratio to completely retard the siRNA: precast 0.8% agarose gel, anti-apoB siRNA
Procedure: Gel retardation assay. In order to define the optimal ratio between lipid:siRNA to achieve full complexation of the nucleic acid which is manifested by a complete retardation in an electrical field, different ratios of lipid:siRNA (0-3) were produced and aliquots run on precast 0.8% agarose gels (Invitrogen). For this purpose, 1 μg siRNA were pipetted into 0.5 mL eppendorf tubes complemented with distilled water to 10 μL. The appropriate amount of lipid from a stock in water (2 mg/mL) were added to generate lipid:siRNA ratios between 0 and 3. All samples were vortexed and the whole reaction mixture pipetted to the individual wells of 0.8% pre-cast agarose gels and run at 50V/10 mA for 20 mins (FIG. 2). […] Therefore, for all future in vivo experiments, a ratio of 3:1 (lipid:siRNA) was chosen.

mouse apoB gene = experiment: Down-regulation of the apoB gene in vivo (liver, real time PCR); set-up: species or system Balb/C mice; conditions: tail vein, liver at 48 h
Procedure: Lipid-siRNA AB nanoparticles with CDAN and DODAG were prepared at final lipid:siRNA ratios of 2.5 and 3, respectively. These values correspond to the optimal ratios to completely retard the siRNA on a precast 0.8% agarose gel (Invitrogen). All lipid-siRNA AB nanoparticle complexes were made in water at a final concentration of 0.5 mg siRNA/mL in water.
Experimental The appropriate amounts of CDAN and DODAG from stock solutions in water (5 mg/mL and 2 mg/mL, respectively) were pipetted into a 25 mL falcon plastic tube. The appropriate amount of anti-apoB siRNA from a stock solution of 10 mg/mL was added slowly to the respective lipid solution while vortexing the falcon tube. The appropriate amount of a solution of trehalose (100%, w/v in water) was added and the sample vortexed heavily for 10 s. The samples were then sonicated in a water bath for 15 mins to generate homogenous emulsions. 15 mins prior to the injection of the samples into Balb/C mice, 1.5M NaCl was added so that each lipid-siRNA AB nanoparticle preparation contained a final concentration of 150 mM NaCl. 200 μL aliquots were injected via tail vein and the animals left for 48 h before sacrificing. The liver was extracted and immediately put into a solution of RNAlater (Ambion). The total RNA was extracted using RNAeasy columns (Qiagen), and quantified both by UV absorption (λ=260 nm) and by densiometry of the bands on a 2% agarose formaldehyde gel.
1 μg of the total RNA was reversed transcribed to generate cDNA in a total volume of 20 μL. After completion of the reaction, the total reaction volume was supplemented to 40 μL with water. From this solution, 1 μL was used to do real time PCR (Sybr green) using the forward primer 5′-[…] (SEQ ID NO: 26) and the reverse primer 5′-[…] (SEQ ID NO:27) on an Applied Biosystem 7700 machine. The data were analysed using the ABI prism software (FIG. 4).

## CCCCCCCCCCCCCCCCCCN(CCCCCCCCCCCCCCCCCC)C(=O)CNC(=O)CCNCCCNCCN [DODAG, N′,N′-dioctadecyl-N-4,8-diaza-10-aminodecanoylglycine amide]
CyPB mRNA in HeLa cells
  specific down-regulation of CyPB in vitro: unsuccessful
siRNA; agarose gel, assuming cationic charge of 1.5 per DODAG
  N/P ratio at which the movement of siRNA was entirely retarded: 1.8
siRNA
  optimal lipid:siRNA ratio to completely retard the siRNA: 3
Mouse apoB gene; 5 mg siRNA/kg animal
  down-regulation of the apoB mRNA in vivo: > 60%

## CC(C)CCC[C@@H](C)[C@H]1CC[C@H]2[C@@H]3CC=C4C[C@@H](OC(=O)NCCNCCCNCCN)CC[C@]4(C)[C@H]3CC[C@]12C [CDAN, N^1-cholesteryloxycarbonyl-3,7-diazanonane-1,9-diamine]
siRNA
  optimal lipid:siRNA ratio to completely retard the siRNA: 2.5
Mouse apoB gene; 5 mg siRNA/kg animal
  down-regulation of the apoB mRNA in vivo: did not mediate down-regulation
Mouse apoB gene; 15 mg siRNA/kg animal
  down-regulation of the apoB mRNA in vivo: did not mediate down-regulation
